Laboratory results from patent US20250011368A1, “DLL3 TARGETING PEPTIDES AND CONSTRUCTS THEREOF” (MARIANA ONCOLOGY INC., priority 2023, published 2025).
Numbered stars: 1 amine (or outer) side, 2 acyl side, 3 side chain; on linkers, the order of the positions; unused ones are H or OH. Bridge positions count the residues as written; N and C are the ends. Square brackets hold non-standard residues; d marks the D form. Peptide text beside a SMILES is read from it. * marks the point of attachment. DOTA = O=C(O)CN1CCN(CC(=O)O)CCN(CC(=O)*)CCN(CC(=O)O)CC1; Phe(4-CF3) = N[C@@H](Cc1ccc(C(F)(F)F)cc1)C(=O)O; Trp(5-F) = N[C@@H](Cc1c[nH]c2ccc(F)cc12)C(=O)O; Phe(2-CF3) = N[C@@H](Cc1ccccc1C(F)(F)F)C(=O)O; Trp(7-aza) = N[C@@H](Cc1c[nH]c2ncccc12)C(=O)O; X5 = O=C([C@H](CC1C=NC2N=CC=CC12)N[*:1])[*:2]; Pro(trans-4-F) = O=C(O)[C@@H]1C[C@@H](F)CN1; Gly(4-THP) = N[C@H](C(=O)O)C1CCOCC1; Cha = N[C@@H](CC1CCCCC1)C(=O)O; Cba = N[C@@H](CC1CCC1)C(=O)O; Chg = N[C@H](C(=O)O)C1CCCCC1; Tle = CC(C)(C)[C@H](N)C(=O)O; Nle = CCCC[C@H](N)C(=O)O; CH2 = C([*:1])[*:2]

These compounds were tested against T1, human DLL3 (Homo sapiens, UniProt Q9NYJ7) (assay: Affinity determination by Surface Plasmon Resonance (SPR)). Settings: 25° C., biotinylated human DLL3 immobilized on streptavidin sensor chip, 1:1 binding model; read-out: SPR KD.
T1 sequence (Q9NYJ7 27-618): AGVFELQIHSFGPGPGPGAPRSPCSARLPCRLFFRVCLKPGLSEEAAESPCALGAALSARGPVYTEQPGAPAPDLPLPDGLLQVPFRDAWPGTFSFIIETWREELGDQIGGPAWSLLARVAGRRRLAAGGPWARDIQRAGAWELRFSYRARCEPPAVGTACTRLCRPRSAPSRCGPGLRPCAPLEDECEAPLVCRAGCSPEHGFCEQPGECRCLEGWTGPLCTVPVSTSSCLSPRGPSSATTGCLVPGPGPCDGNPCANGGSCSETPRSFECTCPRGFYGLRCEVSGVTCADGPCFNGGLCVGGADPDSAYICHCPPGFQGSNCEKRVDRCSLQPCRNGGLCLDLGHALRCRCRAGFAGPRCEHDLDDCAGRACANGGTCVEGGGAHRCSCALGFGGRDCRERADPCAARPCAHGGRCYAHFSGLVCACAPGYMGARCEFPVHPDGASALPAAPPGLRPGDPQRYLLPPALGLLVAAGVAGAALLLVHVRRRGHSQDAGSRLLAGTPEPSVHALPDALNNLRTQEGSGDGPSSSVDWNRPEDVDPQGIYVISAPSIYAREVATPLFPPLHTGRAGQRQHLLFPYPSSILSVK
Type: binding
In short: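 Biotinylated human DLL3 was captured on a streptavidin chip with a reference surface. Compounds at several concentrations were injected at 100 μL/minute in phosphate buffer (137 mM NaCl, 2.7 mM KCl, 0.05% P20, 2% DMSO). Affinity and kinetics came from 1:1 model fits of the sensorgrams.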

Compound	Kd
CC(=O)N[C@@H](Cc1c[nH]c2ccc(F)cc12)C(=O)N[C@H](C(=O)N[C@H](C(=O)N[C@H]1CSSC[C@@H](C(=O)N[C@@H](CC2C=NC3N=CC=CC23)C(=O)N2C[C@H](F)C[C@H]2C(=O)N[C@H](CCCCNC(=O)CN2CCN(CC(=O)O)CCN(CC(=O)O)CCN(CC(=O)O)CC2)C(N)=O)NC(=O)[C@H](CC(=O)O)NC(=O)[C@H](Cc2cnc[nH]2)NC(=O)[C@H](Cc2ccc(C(F)(F)F)cc2)NC(=O)[C@H](CC(N)=O)NC(=O)[C@H](CC(N)=O)NC1=O)C(C)(C)C)[C@@H](C)O (stereo partly drawn) [compound 145, Ac-(5Fluoro-W)-T-(Tbg)-C(3)-N-N-(4CF3-F)-H-D-C(3)-(7Aza-W)-(trans4Fluoro-P)-[D-Lys(DOTA)]-NH2] (Ac-[Trp(5-F)]T[Tle]CNN[Phe(4-CF3)]HDC[X5][Pro(trans-4-F)][dK](DOTA)-NH2; disulfide 4-10)	1 to 10 nM
CC(=O)N[C@@H](Cc1c[nH]c2ccc(F)cc12)C(=O)N[C@H](C(=O)N[C@H](C(=O)N[C@H]1CSSC[C@@H](C(=O)N[C@@H](Cc2c[nH]c3ncccc23)C(=O)N2C[C@H](F)C[C@H]2C(=O)N[C@H](CCCCNC(=O)CN2CCN(CC(=O)O)CCN(CC(=O)O)CCN(CC(=O)O)CC2)C(N)=O)NC(=O)[C@H](CC(=O)O)NC(=O)[C@H](Cc2cnc[nH]2)NC(=O)[C@H](Cc2ccc(C(F)(F)F)cc2)NC(=O)[C@H](CC(N)=O)NC(=O)[C@H](CC(N)=O)NC1=O)C1CCOCC1)[C@@H](C)O [compound 147, Ac-(5Fluoro-W)-T-(THPG)-C(3)-N-N-(4CF3-F)-H-D-C(3)-(7Aza-W)-(trans4Fluoro-P)-[D-Lys(DOTA)]-NH2] (Ac-[Trp(5-F)]T[Gly(4-THP)]CNN[Phe(4-CF3)]HDC[Trp(7-aza)][Pro(trans-4-F)][dK](DOTA)-NH2; disulfide 4-10)	1 to 10 nM
CCCC[C@H](NC(=O)[C@@H](NC(=O)[C@H](Cc1c[nH]c2ccc(F)cc12)NC(C)=O)[C@@H](C)O)C(=O)N[C@H]1CSSC[C@@H](C(=O)N[C@@H](Cc2c[nH]c3ncccc23)C(=O)N2C[C@H](F)C[C@H]2C(=O)N[C@H](CCCCNC(=O)CN2CCN(CC(=O)O)CCN(CC(=O)O)CCN(CC(=O)O)CC2)C(N)=O)NC(=O)[C@H](CC(=O)O)NC(=O)[C@H](Cc2c[nH]cn2)NC(=O)[C@H](Cc2ccc(C(F)(F)F)cc2)NC(=O)[C@H](CC(N)=O)NC(=O)[C@H](CC(N)=O)NC1=O [compound 148, Ac-(5Fluoro-W)-T-(Nle)-C(3)-N-N-(4CF3-F)-H-D-C(3)-(7Aza-W)-(trans4Fluoro-P)-[D-Lys(DOTA)]-NH2] (Ac-[Trp(5-F)]T[Nle]CNN[Phe(4-CF3)]HDC[Trp(7-aza)][Pro(trans-4-F)][dK](DOTA)-NH2; disulfide 4-10)	1 to 10 nM
CC(=O)N[C@@H](Cc1c[nH]c2ccc(F)cc12)C(=O)N[C@H](C(=O)N[C@H](C(=O)N[C@H]1CSSC[C@@H](C(=O)N[C@@H](Cc2c[nH]c3ncccc23)C(=O)N2C[C@H](F)C[C@H]2C(=O)N[C@H](CCCCNC(=O)CN2CCN(CC(=O)O)CCN(CC(=O)O)CCN(CC(=O)O)CC2)C(N)=O)NC(=O)[C@H](CC(=O)O)NC(=O)[C@H](Cc2cnc[nH]2)NC(=O)[C@H](Cc2ccc(C(F)(F)F)cc2)NC(=O)[C@H](CC(N)=O)NC(=O)[C@H](CC(N)=O)NC1=O)C1CCCCC1)[C@@H](C)O [compound 151, Ac-(5Fluoro-W)-T-(Chg)-C(3)-N-N-(4CF3-F)-H-D-C(3)-(7Aza-W)-(trans4Fluoro-P)-[D-Lys(DOTA)]-NH2] (Ac-[Trp(5-F)]T[Chg]CNN[Phe(4-CF3)]HDC[Trp(7-aza)][Pro(trans-4-F)][dK](DOTA)-NH2; disulfide 4-10)	1 to 10 nM
CC(=O)N[C@@H](Cc1c[nH]c2ccc(F)cc12)C(=O)N[C@H](C(=O)N[C@@H](Cc1ccccc1C(F)(F)F)C(=O)N[C@H]1CSSC[C@@H](C(=O)N[C@@H](Cc2c[nH]c3ncccc23)C(=O)N2C[C@H](F)C[C@H]2C(=O)N[C@H](CCCCNC(=O)CN2CCN(CC(=O)O)CCN(CC(=O)O)CCN(CC(=O)O)CC2)C(N)=O)NC(=O)[C@H](CC(=O)O)NC(=O)[C@H](Cc2cnc[nH]2)NC(=O)[C@H](Cc2ccc(C(F)(F)F)cc2)NC(=O)[C@H](CC(N)=O)NC(=O)[C@H](CC(N)=O)NC1=O)[C@@H](C)O [compound 152, Ac-(5Fluoro-W)-T-(2CF3-F)-C(3)-N-N-(4CF3-F)-H-D-C(3)-(7Aza-W)-(trans4Fluoro-P)-[D-Lys(DOTA)]-NH2] (Ac-[Trp(5-F)]T[Phe(2-CF3)]CNN[Phe(4-CF3)]HDC[Trp(7-aza)][Pro(trans-4-F)][dK](DOTA)-NH2; disulfide 4-10)	1 to 10 nM

Second part, the compound after the results:

Kd	Compound
1 to 10 nM	CC(=O)N[C@@H](Cc1c[nH]c2ccc(F)cc12)C(=O)N[C@H](C(=O)N[C@@H](CC1CCCCC1)C(=O)N[C@H]1CSSC[C@@H](C(=O)N[C@@H](Cc2c[nH]c3ncccc23)C(=O)N2C[C@H](F)C[C@H]2C(=O)N[C@H](CCCCNC(=O)CN2CCN(CC(=O)O)CCN(CC(=O)O)CCN(CC(=O)O)CC2)C(N)=O)NC(=O)[C@H](CC(=O)O)NC(=O)[C@H](Cc2cnc[nH]2)NC(=O)[C@H](Cc2ccc(C(F)(F)F)cc2)NC(=O)[C@H](CC(N)=O)NC(=O)[C@H](CC(N)=O)NC1=O)[C@@H](C)O [compound 149, Ac-(5Fluoro-W)-T-(CHA)-C(3)-N-N-(4CF3-F)-H-D-C(3)-(7Aza-W)-(trans4Fluoro-P)-[D-Lys(DOTA)]-NH2] (Ac-[Trp(5-F)]T[Cha]CNN[Phe(4-CF3)]HDC[Trp(7-aza)][Pro(trans-4-F)][dK](DOTA)-NH2; disulfide 4-10)
1 to 10 nM	CC(=O)N[C@@H](Cc1c[nH]c2ccc(F)cc12)C(=O)N[C@H](C(=O)N[C@@H](CC1CCC1)C(=O)N[C@H]1CSSC[C@@H](C(=O)N[C@@H](Cc2c[nH]c3ncccc23)C(=O)N2C[C@H](F)C[C@H]2C(=O)N[C@H](CCCCNC(=O)CN2CCN(CC(=O)O)CCN(CC(=O)O)CCN(CC(=O)O)CC2)C(N)=O)NC(=O)[C@H](CC(=O)O)NC(=O)[C@H](Cc2cnc[nH]2)NC(=O)[C@H](Cc2ccc(C(F)(F)F)cc2)NC(=O)[C@H](CC(N)=O)NC(=O)[C@H](CC(N)=O)NC1=O)[C@@H](C)O [compound 150, Ac-(5Fluoro-W)-T-(CBA)-C(3)-N-N-(4CF3-F)-H-D-C(3)-(7Aza-W)-(trans4Fluoro-P)-[D-Lys(DOTA)]-NH2] (Ac-[Trp(5-F)]T[Cba]CNN[Phe(4-CF3)]HDC[Trp(7-aza)][Pro(trans-4-F)][dK](DOTA)-NH2; disulfide 4-10)
1 to 10 nM	CC[C@H](C)[C@H](NC(=O)[C@@H](NC(=O)[C@H](Cc1c[nH]c2ccccc12)NC(C)=O)[C@@H](C)O)C(=O)N[C@H]1CSCSC[C@@H](C(=O)N[C@@H](Cc2c[nH]c3ccccc23)C(=O)N2CCC[C@H]2C(=O)N[C@H](CCCCNC(=O)CN2CCN(CC(=O)O)CCN(CC(=O)O)CCN(CC(=O)O)CC2)C(N)=O)NC(=O)[C@H](CC(=O)O)NC(=O)[C@H](Cc2cnc[nH]2)NC(=O)[C@H](Cc2c[nH]c3ccccc23)NC(=O)[C@H](CC(N)=O)NC(=O)[C@H](CC(N)=O)NC1=O [compound 164, Ac-WTI-C(1)-NNWHD-C(1)-WP-[D-Lys(DOTA)]-NH2] (Ac-WTICNNWHDCWP[dK](DOTA)-NH2; linker 4-10 via CH2)
